Experimental data reported in patent US9034862B2, “Compositions and methods for the treatment of cancer” (priority 2011, dated 2015).

Tested on: pGLuc plasmid
Assay: Platination of pGLuc plasmid
Format: biochemical
Protocol: The resulting mixtures were dialyzed (molecular weight cut-off 3.5 kDa) against ddH2O overnight at 4° C. with five changes of ddH2O. The rb values (bound Pt/nucleotide) were determined by UV/Vis and atomic absorption spectroscopy.
In one embodiment, the ratio of bound platinum per plasmid was determined by measuring the Pt concentration by atomic absorption spectroscopy and the DNA concentration by UV/Vis spectroscopy.

cis-[Pt(NH3)2(phenanthridine)Cl]NO3 [phenanthriplatin]
Pt per plasmid (rf 0.0008, 16 h at 37° C.): 12.12 Pt per plasmid
rb (bound Pt/nucleotide) (rf 0.0008, 16 h at 37° C.): 0.0015
Pt per plasmid (rf 0.0019, 16 h at 37° C.): 15.42 Pt per plasmid
rb (bound Pt/nucleotide) (rf 0.0019, 16 h at 37° C.): 0.0019
Pt per plasmid (rf 0.0029, 16 h at 37° C.): 24.28 Pt per plasmid
rb (bound Pt/nucleotide) (rf 0.0029, 16 h at 37° C.): 0.0030
Pt per plasmid (rf 0.0060, 16 h at 37° C.): 42.80 Pt per plasmid
rb (bound Pt/nucleotide) (rf 0.0060, 16 h at 37° C.): 0.0053
